Assay results as given in patent publication US20010049117A1, “ANALOGS OF UDP-MURNAC PEPTIDES, ASSAYS, KITS AND RELATED METHODS OF THEIR USE” (priority 1998, published 2001).

Test system: MraY/MurG enzymes
Assay: Lipid II formation assay (coupled MraY/MurG GlcNAc transferase assay, streptavidin capture)
Type: biochemical, E. coli
Description: Bacterial membranes are used as a source of enzymes in the coupled MraY/MurG assay for the formation of Lipid II. Wild-type E. coli and MurG over-expressing constructs have been utilized as the membrane donors. Bacteria are grown in Brain Heart Infusion media supplemented with Casamino Acids (BHI/CAA) at 37° C. with aeration, to log phase (OD600=0.7) and centrifuged at 7000×g. Pellets are washed once with 50× the wet pellet weight of 5 mM Tris-HCl (pH 8.0). Pellets are resuspended at a concentration of 2 gms wet pellet/35 mls 5 mM Tris for French Press disruption. Cells are pressure treated at 20,000 psi for 1 minute in a prechilled pressure cell. The membranes generated are collected by ultracentrifugation at 200,000×g for 1 hour at 4° C. Membrane pellets are resuspended in approximately the same volume as the wet pellet weight. This generally yields a membrane concentration of roughly 5 mg/ml. Aliquots are made, and membranes frozen at −80° C. until analysis.
Reactions for the formation of Lipid II have been optimized in 1.5 ml Eppendorf tubes. […]
To the Eppendorf tubes containing the reaction mixtures, 500 ul of binding buffer (10 mM Tris-HCl (PH 8.0), 150 mM NaCl, 0.2% Triton X-100) is added. […] The resulting beads are resuspended in buffer, mixed with scintillation cocktail, and counted in a scintillation counter to determine the amount of radioactivity associated with the capture event. […]

Compound | effect on formation of streptavidin-capturable radiolabeled Lipid II (100 ug/ml) | effect on the coupled GlcNAc transferase assay (formation of Lipid II) (FIG. 4)
moenomycin | did not affect | 
CC1(C)S[C@@H]2[C@H](NC(=O)[C@H](N)c3ccccc3)C(=O)N2[C@H]1C(=O)O [ampicillin] |  | no effect
